The values that follow are results of earlier work, collected in patent US8026262B2, “Chemical compounds” (GlaxoSmithKline LLC, priority 2006, dated 2011).

The test system of series [1] is ovariectomized (OVX) rats.

Regarding `CN(C)[C@H]1C[C@@H](C(C)(C)CO)Nc2ccc([N+](=O)[O-])cc21` [Example S-40503], in the series with ORX rats (4 weeks, as markedly as DHT), the “bone mineral density (BMD) of femur” value was “increased” and the “levator ani muscle weight” value is listed as “increased”. Also, the prostate weight entry in the series with ORX rats (versus eugonadal rats, at any doses tested) is listed as “not elevated”. Also, the “periosteal mineral apposition rate of the femur” value in series [1] is listed as “increase”. Besides, in series [1] (2 month period), the “BMD of femoral cortical bone” value is “significantly increased” and the “biomechanical strength of femoral cortical bone” value is reported as “significantly increased”.
In the case of estrogen, the “biomechanical strength of femoral cortical bone” value in series [1] (2 month period) is recorded as “did not”.
